Experimental data reported in US11117892B2, “Pyrrolo-pyridine derivative compound, method for preparing same, and pharmaceutical composition containing same as active ingredient for prevention or treatment of protein kinase-related diseases” (DAEGU-GYEONGBUK MEDICAL INNOVATION FOUNDATION, priority 2017, dated 2021).

Key:
Assay in all cases: scanMAX Kinase assay panel
Type in all cases: binding
Conditions in all cases: read-out: % control
ACVR1 = ACVR1 (Homo sapiens (Human), UniProt Q04771)
Outline: (§1)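 Each compound is run against the kinase on the scanMAX selectivity panel. Its signal is then expressed relative to a DMSO negative control (100%) and a positive control compound (0%).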

BMX = BMX (Homo sapiens (Human), UniProt P51813)
Outline: as §1

BRAF = BRAF (Homo sapiens (Human), UniProt P15056)
Outline: as §1

BRK = BRK (Homo sapiens (Human), UniProt Q13882)
Outline: as §1

BRSK2 = BRSK2 (Homo sapiens (Human), UniProt Q8IWQ3)
Outline: as §1

CDKL2 = CDKL2 (Homo sapiens (Human), UniProt Q92772)
Outline: as §1

CSNK1G2 = CSNK1G2 (Homo sapiens (Human), UniProt P78368)
Outline: as §1

EGFR(L858R, T790M) = EGFR(L858R, T790M) (Homo sapiens (Human), UniProt P00533, L858R/T790M)
Outline: as §1

EPHB4 = EPHB4 (Homo sapiens (Human), UniProt P54760)
Outline: as §1

EPHB6 = EPHB6 (Homo sapiens (Human), UniProt O15197)
Outline: as §1

ERK8 = ERK8 (Homo sapiens (Human), UniProt Q8TD08)
Outline: as §1

FGFR1 = FGFR1 (Homo sapiens (Human), UniProt P11362)
Outline: as §1

FGFR3 = FGFR3 (Homo sapiens (Human), UniProt P22607)
Outline: as §1

FLT3 = FLT3 (Homo sapiens (Human), UniProt P36888)
Outline: as §1

FLT3(R834Q) = FLT3(R834Q) (Homo sapiens (Human), UniProt P36888, R834Q)
Outline: as §1

IKK-alpha = IKK-alpha (Homo sapiens (Human), UniProt O15111)
Outline: as §1

INSR = INSR (Homo sapiens (Human), UniProt P06213)
Outline: as §1

ITK = ITK (Homo sapiens (Human), UniProt Q08881)
Outline: as §1

LATS2 = LATS2 (Homo sapiens (Human), UniProt Q9NRM7)
Outline: as §1

MEK3 = MEK3 (Homo sapiens (Human), UniProt P46734)
Outline: as §1

MEK5 = MEK5 (Homo sapiens (Human), UniProt Q13163)
Outline: as §1

MST2 = MST2 (Homo sapiens (Human), UniProt Q13188)
Outline: as §1

MUSK = MUSK (Homo sapiens (Human), UniProt O15146)
Outline: as §1

PAK7 = PAK7 (Homo sapiens (Human), UniProt Q9P286)
Outline: as §1

PIK3CA(C420R) = PIK3CA(C420R) (Homo sapiens (Human), UniProt P42336, C420R)
Outline: as §1

PIK3CA(E545A) = PIK3CA(E545A) (Homo sapiens (Human), UniProt P42336, E545A)
Outline: as §1

PRKCH = PRKCH (Homo sapiens (Human), UniProt P24723)
Outline: as §1

PRKD3 = PRKD3 (Homo sapiens (Human), UniProt O94806)
Outline: as §1

ROS1 = ROS1 (Homo sapiens (Human), UniProt P08922)
Outline: as §1

[1] = target: RPS6KA4(Kin.Dom.2-C-terminal) (Homo sapiens (Human), UniProt O75676)
Outline: as §1

SGK = SGK (Homo sapiens (Human), UniProt O00141)
Outline: as §1

SRC = SRC (Homo sapiens (Human), UniProt P12931)
Outline: as §1

TESK1 = TESK1 (Homo sapiens (Human), UniProt Q15569)
Outline: as §1

TLK1 = TLK1 (Homo sapiens (Human), UniProt Q9UKI8)
Outline: as §1

TNK1 = TNK1 (Homo sapiens (Human), UniProt Q13470)
Outline: as §1

TRKC = TRKC (Homo sapiens (Human), UniProt Q16288)
Outline: as §1

ULK1 = ULK1 (Homo sapiens (Human), UniProt O75385)
Outline: as §1

VEGFR2 = VEGFR2 (Homo sapiens (Human), UniProt P35968)
Outline: as §1

WEE1 = WEE1 (Homo sapiens (Human), UniProt P30291)
Outline: as §1

WEE1, sequence (P30291 whole entry): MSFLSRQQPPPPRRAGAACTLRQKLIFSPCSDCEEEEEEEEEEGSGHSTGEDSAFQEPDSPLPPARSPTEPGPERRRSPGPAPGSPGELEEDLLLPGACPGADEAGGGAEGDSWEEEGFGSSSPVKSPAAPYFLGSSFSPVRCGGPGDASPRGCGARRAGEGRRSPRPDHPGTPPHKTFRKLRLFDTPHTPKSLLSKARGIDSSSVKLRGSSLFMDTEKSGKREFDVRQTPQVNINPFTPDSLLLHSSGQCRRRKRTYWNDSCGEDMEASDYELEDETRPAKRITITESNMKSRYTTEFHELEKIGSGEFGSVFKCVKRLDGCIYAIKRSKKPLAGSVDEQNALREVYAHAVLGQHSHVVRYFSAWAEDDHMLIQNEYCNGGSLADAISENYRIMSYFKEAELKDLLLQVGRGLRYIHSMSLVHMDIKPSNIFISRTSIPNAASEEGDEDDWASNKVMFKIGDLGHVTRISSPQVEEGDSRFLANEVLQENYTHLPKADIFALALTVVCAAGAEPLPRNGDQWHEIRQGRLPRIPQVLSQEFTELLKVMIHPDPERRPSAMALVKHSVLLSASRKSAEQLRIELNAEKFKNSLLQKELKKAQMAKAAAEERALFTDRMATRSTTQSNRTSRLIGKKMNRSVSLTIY
MEK3, sequence (P46734 whole entry): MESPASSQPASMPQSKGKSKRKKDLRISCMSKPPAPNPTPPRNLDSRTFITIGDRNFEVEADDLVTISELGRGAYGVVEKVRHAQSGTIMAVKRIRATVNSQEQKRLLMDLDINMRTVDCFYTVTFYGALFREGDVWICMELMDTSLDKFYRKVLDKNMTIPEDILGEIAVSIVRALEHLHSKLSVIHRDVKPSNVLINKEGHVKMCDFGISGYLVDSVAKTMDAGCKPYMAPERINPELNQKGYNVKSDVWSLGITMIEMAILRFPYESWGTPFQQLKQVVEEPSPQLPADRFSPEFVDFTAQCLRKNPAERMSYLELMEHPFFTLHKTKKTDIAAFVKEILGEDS
CSNK1G2, sequence (P78368 whole entry): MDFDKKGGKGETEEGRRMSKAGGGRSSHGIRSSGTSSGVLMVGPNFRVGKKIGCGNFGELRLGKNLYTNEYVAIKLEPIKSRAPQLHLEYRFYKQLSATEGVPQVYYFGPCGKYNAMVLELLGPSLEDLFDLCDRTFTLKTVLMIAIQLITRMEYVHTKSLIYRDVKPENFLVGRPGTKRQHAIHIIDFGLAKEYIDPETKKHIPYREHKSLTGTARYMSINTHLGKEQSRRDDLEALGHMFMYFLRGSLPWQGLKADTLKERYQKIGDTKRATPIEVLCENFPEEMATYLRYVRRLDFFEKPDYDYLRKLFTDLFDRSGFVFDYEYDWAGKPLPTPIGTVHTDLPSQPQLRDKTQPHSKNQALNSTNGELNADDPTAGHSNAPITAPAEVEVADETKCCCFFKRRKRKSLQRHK
PRKCH, sequence (P24723 whole entry): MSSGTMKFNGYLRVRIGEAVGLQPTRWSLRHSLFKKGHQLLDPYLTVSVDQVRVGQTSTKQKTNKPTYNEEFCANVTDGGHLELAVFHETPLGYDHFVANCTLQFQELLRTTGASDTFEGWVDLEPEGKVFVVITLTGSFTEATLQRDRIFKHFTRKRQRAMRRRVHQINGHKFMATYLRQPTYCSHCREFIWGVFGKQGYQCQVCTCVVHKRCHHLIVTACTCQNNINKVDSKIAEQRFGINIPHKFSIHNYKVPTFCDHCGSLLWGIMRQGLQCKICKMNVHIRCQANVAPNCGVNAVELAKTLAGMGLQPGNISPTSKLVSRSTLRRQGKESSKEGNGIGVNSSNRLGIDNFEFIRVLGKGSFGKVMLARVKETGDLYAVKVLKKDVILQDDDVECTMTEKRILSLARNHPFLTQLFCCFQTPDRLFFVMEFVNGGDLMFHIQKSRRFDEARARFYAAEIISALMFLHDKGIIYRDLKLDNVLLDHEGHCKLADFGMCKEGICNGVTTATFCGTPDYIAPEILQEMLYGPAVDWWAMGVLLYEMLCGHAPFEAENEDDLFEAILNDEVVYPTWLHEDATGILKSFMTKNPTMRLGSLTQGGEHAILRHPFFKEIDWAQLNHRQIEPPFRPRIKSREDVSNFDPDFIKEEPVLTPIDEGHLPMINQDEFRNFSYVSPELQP
ACVR1, sequence (Q04771 21-509): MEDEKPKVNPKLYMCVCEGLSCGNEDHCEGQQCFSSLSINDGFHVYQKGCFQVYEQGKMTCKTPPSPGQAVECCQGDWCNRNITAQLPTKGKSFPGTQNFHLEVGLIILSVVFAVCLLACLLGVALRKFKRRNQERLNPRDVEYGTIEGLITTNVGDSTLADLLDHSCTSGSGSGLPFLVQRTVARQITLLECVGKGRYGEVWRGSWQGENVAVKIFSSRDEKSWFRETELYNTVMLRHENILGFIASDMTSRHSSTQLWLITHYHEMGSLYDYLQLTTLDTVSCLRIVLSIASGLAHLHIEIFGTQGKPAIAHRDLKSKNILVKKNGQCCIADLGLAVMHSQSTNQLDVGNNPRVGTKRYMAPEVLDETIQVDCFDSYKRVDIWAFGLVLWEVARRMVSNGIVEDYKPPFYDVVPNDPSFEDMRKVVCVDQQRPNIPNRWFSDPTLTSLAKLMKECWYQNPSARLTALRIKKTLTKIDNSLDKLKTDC
TNK1, sequence (Q13470 whole entry): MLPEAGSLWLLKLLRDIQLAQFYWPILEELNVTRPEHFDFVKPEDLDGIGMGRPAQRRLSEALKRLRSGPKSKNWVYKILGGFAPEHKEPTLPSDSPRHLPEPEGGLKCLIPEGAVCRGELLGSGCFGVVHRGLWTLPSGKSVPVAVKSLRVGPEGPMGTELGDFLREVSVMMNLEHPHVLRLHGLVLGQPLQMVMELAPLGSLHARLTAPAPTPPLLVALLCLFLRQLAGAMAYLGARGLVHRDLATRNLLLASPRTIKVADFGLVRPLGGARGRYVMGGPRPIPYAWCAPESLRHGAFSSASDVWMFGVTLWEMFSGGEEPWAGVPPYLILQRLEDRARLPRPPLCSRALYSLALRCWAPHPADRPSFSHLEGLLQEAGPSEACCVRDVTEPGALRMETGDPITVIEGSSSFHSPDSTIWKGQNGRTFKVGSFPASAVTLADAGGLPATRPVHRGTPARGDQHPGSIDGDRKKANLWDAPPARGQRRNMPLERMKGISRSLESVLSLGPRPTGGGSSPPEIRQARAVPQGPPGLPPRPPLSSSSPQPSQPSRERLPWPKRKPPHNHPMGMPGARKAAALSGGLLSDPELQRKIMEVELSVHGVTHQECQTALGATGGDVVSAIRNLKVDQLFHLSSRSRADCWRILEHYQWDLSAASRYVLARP
EPHB6, sequence (O15197 32-1021): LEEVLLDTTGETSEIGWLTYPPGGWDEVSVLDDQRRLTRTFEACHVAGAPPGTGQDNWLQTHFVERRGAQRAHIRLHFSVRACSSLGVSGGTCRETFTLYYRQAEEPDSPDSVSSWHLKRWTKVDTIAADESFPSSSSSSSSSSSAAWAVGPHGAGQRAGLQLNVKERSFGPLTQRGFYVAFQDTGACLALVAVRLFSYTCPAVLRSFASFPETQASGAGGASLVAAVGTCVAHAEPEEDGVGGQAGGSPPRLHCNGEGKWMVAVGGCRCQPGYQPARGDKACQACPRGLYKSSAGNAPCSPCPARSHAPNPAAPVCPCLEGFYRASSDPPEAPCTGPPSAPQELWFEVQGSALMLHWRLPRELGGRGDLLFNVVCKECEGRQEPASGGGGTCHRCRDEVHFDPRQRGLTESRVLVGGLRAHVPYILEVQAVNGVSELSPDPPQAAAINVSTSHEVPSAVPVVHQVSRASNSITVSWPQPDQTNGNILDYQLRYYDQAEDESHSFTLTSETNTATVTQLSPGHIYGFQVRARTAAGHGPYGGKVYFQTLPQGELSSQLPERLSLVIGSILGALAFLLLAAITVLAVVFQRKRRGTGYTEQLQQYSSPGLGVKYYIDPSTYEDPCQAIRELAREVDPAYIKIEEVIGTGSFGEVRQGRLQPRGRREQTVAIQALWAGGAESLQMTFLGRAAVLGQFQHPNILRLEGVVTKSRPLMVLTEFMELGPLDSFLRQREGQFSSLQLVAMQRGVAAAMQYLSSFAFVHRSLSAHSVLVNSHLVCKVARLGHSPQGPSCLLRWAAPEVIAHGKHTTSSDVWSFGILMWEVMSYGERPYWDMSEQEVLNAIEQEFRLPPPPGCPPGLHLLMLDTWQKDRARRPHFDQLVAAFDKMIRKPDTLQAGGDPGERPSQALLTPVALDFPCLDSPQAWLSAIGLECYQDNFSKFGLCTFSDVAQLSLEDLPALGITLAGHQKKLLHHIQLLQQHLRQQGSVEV
CDKL2, sequence (Q92772 whole entry): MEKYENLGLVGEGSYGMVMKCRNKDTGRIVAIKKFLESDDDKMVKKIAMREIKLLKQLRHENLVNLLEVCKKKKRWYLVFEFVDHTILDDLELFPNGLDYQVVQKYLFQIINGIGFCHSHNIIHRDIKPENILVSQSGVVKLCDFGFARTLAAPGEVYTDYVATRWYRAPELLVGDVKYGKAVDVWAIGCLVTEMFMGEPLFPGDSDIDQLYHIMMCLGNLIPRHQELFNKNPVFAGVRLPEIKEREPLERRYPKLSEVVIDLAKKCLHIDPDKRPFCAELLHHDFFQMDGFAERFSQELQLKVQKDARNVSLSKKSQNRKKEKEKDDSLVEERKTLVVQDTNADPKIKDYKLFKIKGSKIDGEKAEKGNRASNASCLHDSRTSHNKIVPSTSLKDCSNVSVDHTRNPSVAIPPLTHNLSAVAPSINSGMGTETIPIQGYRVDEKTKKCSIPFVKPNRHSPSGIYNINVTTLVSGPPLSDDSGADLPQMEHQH
RPS6KA4(Kin.Dom.2-C-terminal), sequence (O75676 411-674): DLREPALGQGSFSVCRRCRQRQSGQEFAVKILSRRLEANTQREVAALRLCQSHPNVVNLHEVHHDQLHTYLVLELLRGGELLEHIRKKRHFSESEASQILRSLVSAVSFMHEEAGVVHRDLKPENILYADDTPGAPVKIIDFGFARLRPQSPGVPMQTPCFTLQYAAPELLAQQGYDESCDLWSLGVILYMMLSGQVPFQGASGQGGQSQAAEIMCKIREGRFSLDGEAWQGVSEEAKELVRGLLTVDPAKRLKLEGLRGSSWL

| SMILES | remaining binding at 1 µM (ACVR1) | remaining binding at 1 µM (BMX) | remaining binding at 1 µM (BRAF) | remaining binding at 1 µM (BRK) | remaining binding at 1 µM (BRSK2) | remaining binding at 1 µM (CDKL2) | remaining binding at 1 µM (CSNK1G2) | remaining binding at 1 µM (EGFR(L858R, T790M)) | remaining binding at 1 µM (EPHB4) | remaining binding at 1 µM (EPHB6) | remaining binding at 1 µM (ERK8) | remaining binding at 1 µM (FGFR1) | remaining binding at 1 µM (FGFR3) | remaining binding at 1 µM (FLT3) | remaining binding at 1 µM (FLT3(R834Q)) | remaining binding at 1 µM (IKK-alpha) | remaining binding at 1 µM (INSR) | remaining binding at 1 µM (ITK) | remaining binding at 1 µM (LATS2) | remaining binding at 1 µM (MEK3) | also measured |
| --- | --- | --- | --- | --- | --- | --- | --- | --- | --- | --- | --- | --- | --- | --- | --- | --- | --- | --- | --- | --- | --- |
| CCNc1cc(Nc2ccc(C(=O)N3CCC(N4CCOCC4)CC3)cc2OC)nc2[nH]cc(C#N)c12 [Example 18, 4-(ethylamino)-6-((2-methoxy-4-(4-morpholinopiperidine-1-carbonyl)phenyl)amino)-1H-pyrrolo[2,3-b]pyridine-3-carbonitrile] | 92% | 75% | 83% | 95% | 96% | 100% | 27% | 81% | 100% | 78% | 99% | 87% | 93% | 83% | 92% | 44% | 36% | 87% | 26% | 4.3% | remaining binding at 1 µM (MEK5): 77%; remaining binding at 1 µM (MST2): 95%; remaining binding at 1 µM (MUSK): 97%; remaining binding at 1 µM (PAK7): 80%; remaining binding at 1 µM (PIK3CA(C420R)): 87%; remaining binding at 1 µM (PIK3CA(E545A)): 100%; remaining binding at 1 µM (PRKCH): 95%; remaining binding at 1 µM (PRKD3): 9.6%; remaining binding at 1 µM (ROS1): 83%; remaining binding at 1 µM [1]: 0.3%; remaining binding at 1 µM (SGK): 64%; remaining binding at 1 µM (SRC): 100%; remaining binding at 1 µM (TESK1): 90%; remaining binding at 1 µM (TLK1): 100%; remaining binding at 1 µM (TNK1): 81%; remaining binding at 1 µM (TRKC): 93%; remaining binding at 1 µM (ULK1): 78%; remaining binding at 1 µM (VEGFR2): 63%; remaining binding at 1 µM (WEE1): 100% |
| CCNc1cc(Nc2ccc(C(=O)N3CCC(N4CCOCC4)CC3)cc2OC)nc2[nH]cc(C(F)(F)F)c12 [Example 57, (4-((4-(ethylamino)-3-(trifluoromethyl)-1H-pyrrolo[2,3-b]pyridin-6-yl)amino)-3-methoxyphenyl) (4-morpholinopiperidin-1-yl)methanone] | 88% | 89% | 98% | 94% | 79% | 90% | 86% | 73% | 88% | 99% | 93% | 87% | 94% | 100% | 100% | 100% | 48% | 97% | 100% | 81% | remaining binding at 1 µM (MEK5): 99%; remaining binding at 1 µM (MST2): 100%; remaining binding at 1 µM (MUSK): 100%; remaining binding at 1 µM (PAK7): 100%; remaining binding at 1 µM (PIK3CA(C420R)): 100%; remaining binding at 1 µM (PIK3CA(E545A)): 77%; remaining binding at 1 µM (PRKCH): 99%; remaining binding at 1 µM (PRKD3): 78%; remaining binding at 1 µM (ROS1): 69%; remaining binding at 1 µM [1]: 100%; remaining binding at 1 µM (SGK): 100%; remaining binding at 1 µM (SRC): 100%; remaining binding at 1 µM (TESK1): 79%; remaining binding at 1 µM (TLK1): 73%; remaining binding at 1 µM (TNK1): 100%; remaining binding at 1 µM (TRKC): 100%; remaining binding at 1 µM (ULK1): 94%; remaining binding at 1 µM (VEGFR2): 95%; remaining binding at 1 µM (WEE1): 100% |
